Our source for the IC50 values is EP4803142A2 (Kayothera Inc., priority 2021, dated 2022).

The target in one assay is T1, mALDH1a2 (Mus musculus, UniProt Q62148).
T1 construct: pET-Aldh1a2 transformed BL21-DE3 cultures; cell extracts
T1 sequence (Q62148 1-518): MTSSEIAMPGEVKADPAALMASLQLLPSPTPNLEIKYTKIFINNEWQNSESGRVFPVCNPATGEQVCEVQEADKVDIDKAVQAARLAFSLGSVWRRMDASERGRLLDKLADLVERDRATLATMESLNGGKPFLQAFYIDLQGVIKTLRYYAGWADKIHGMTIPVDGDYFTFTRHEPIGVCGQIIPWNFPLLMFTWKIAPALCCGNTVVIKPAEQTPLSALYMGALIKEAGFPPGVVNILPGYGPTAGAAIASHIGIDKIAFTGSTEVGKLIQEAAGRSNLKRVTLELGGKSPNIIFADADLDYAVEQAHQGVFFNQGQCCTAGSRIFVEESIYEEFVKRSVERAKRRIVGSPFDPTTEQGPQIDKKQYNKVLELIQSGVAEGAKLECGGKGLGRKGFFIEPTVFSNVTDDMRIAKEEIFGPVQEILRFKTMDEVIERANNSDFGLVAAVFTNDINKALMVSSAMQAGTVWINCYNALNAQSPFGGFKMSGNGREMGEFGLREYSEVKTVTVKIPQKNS
As to the kind of experiment: biochemical. The following applies: read-out: mAldhla2 IC50. The protocol:
(§1) Biological Example 5C. Aldh1a2 Enzyme Inhibition Assay
(§2) Cell extracts were spun at 16000 x g for 5 minutes.
(§3) Recombinant enzyme and inhibitor added immediately before assay. Reaction rate measured by resorufin fluorescence. […]
(§4) Table 3B. IC50 values (nM) for inhibition of hALDH1a2 and mALDH1a2 of selected compounds

A further assay deals with T2, hALDH1a2 (Homo sapiens, UniProt O94788).
T2 construct: pET-Aldh1a2 transformed BL21-DE3 cultures; cell extracts
T2 sequence (O94788 1-518): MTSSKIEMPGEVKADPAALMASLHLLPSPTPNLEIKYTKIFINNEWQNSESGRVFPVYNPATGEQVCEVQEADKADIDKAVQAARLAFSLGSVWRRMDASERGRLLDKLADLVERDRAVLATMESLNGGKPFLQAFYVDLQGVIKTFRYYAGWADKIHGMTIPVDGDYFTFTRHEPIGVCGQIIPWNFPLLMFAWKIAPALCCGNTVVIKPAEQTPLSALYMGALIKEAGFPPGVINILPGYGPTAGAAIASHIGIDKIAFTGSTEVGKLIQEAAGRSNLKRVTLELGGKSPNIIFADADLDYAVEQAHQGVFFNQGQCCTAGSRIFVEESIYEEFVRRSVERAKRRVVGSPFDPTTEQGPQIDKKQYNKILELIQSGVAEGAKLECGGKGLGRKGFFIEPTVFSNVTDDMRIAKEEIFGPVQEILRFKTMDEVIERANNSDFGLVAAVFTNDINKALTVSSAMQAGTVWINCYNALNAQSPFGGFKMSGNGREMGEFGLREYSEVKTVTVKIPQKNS
As to the kind of experiment: biochemical. The following applies: read-out: hAldhla2 IC50. As to the method: as §1, §2, §3, §4

A value given as a limit tells only on which side of the number the result lay.

In the case of `CCc1cnccc1C(=O)Nc1cc2ccc(=O)[nH]c2cc1F` [compound 39], the results for the 50% inhibitory concentration (IC50) at mALDH1a2 and on hALDH1a2 were 8 µM and 3.5 µM, respectively.

Take `CC1(C)Cc2cc(Nc3ncc4ccccc4n3)ccc2NC1=O` [compound 93]: the concentration for half-maximal inhibition (IC50) was found to be 0.063 µM on mALDH1a2 and 0.08 µM on hALDH1a2.

For `CCc1cnccc1C(=O)Nc1ccc2c(c1)CC(C)(CC)C(=O)N2` (stereo not shown) [compound 62], the IC50 on mALDH1a2 and on hALDH1a2 was over 10 µM throughout.

Take `CCc1cnccc1C(=O)Nc1cc2c(cc1F)NC(=O)CC2(C)C` [compound 40]: the results for the IC50 at mALDH1a2 and on hALDH1a2 were 3.33 µM and 1.04 µM, respectively.

In the case of `CCc1cnccc1C(=O)Nc1ccc2c(c1)CN(C)C(=O)N2` [compound 20], the concentration for half-maximal inhibition (IC50) at mALDH1a2 was over 100 µM; at hALDH1a2, over 10 µM.

For `CC1(C)Cc2cc(Nc3ccc4c(c3)NC(=O)CC4)ccc2NC1=O` [compound 114], the 50% inhibitory concentration (IC50) on mALDH1a2 and on hALDH1a2 was over 10 µM throughout.

Consider `CCc1cnccc1C(=O)Nc1ccc2c(c1)C(C)(C)CC(=O)N2` [compound 19], for which the values for the IC50 at mALDH1a2 and on hALDH1a2 were 1.05 µM and 0.65 µM, respectively.

For `CCc1cc(=O)n(C)cc1C(=O)Nc1ccc2c(c1)CCC(=O)N2` [compound 76], the half-maximal inhibitory concentration (IC50) on mALDH1a2 is 4.31 µM; at hALDH1a2 it was 6.56 µM.

Regarding `CC1(C)Cc2cc(Nc3ccc4c(n3)CCCC4=O)ccc2NC1=O` [compound 127], the IC50 came out at 1.29 µM on mALDH1a2 and 0.894 µM on hALDH1a2.

For `CCc1cc(C#N)ccc1C(=O)Nc1cc2c(cc1F)NC(=O)C(C)(C)C2` [compound 42], the IC50 on mALDH1a2 turned out to be 2.6 µM; on hALDH1a2, 6.36 µM.

As to `Cc1ccc(C(=O)Nc2ccc3c(c2)CCC(=O)N3)c(C)c1` [compound 12], the IC50 on mALDH1a2 and at hALDH1a2 was over 10 µM throughout.

For the compound `CC1(C)Cc2cc(Nc3ncc4ccccc4n3)c(F)cc2NC1=O` [compound 108], the concentration for half-maximal inhibition (IC50) on mALDH1a2 was 0.1 µM; on hALDH1a2, 0.12 µM.

As to `CC1(C)Cc2cc(Nc3cnc4ccccc4n3)ccc2NC1=O` [compound 92], the half-maximal inhibitory concentration (IC50) on mALDH1a2 is 0.031 µM; on hALDH1a2, 0.04 µM.

Consider `Cc1cnccc1/C=C/c1ccc2c(c1)CCC(=O)N2` [compound 30], for which the half-maximal inhibitory concentration (IC50) on mALDH1a2 worked out at 11.1 µM; at hALDH1a2, 9 µM.

For the compound `Cc1ccc(Nc2ccc3c(c2)CC(C)(C)C(=O)N3)nc1C` [compound 96], the IC50 on mALDH1a2 and at hALDH1a2 was over 10 µM each time.

For `CCc1c[n+]([O-])ccc1C(=O)Nc1ccc2c(c1)CCC(=O)N2` [compound 73], the IC50 on mALDH1a2 and at hALDH1a2 was over 10 µM throughout.

Turning to `Cc1ccc2nc(Nc3ccc4c(c3)CCC(=O)N4)ccc2c1` [compound 89], the IC50 at mALDH1a2 is 0.489 µM; on hALDH1a2 it was 10 µM.

For `N#Cc1ccc2ccc(Nc3ccc4c(c3)CCC(=O)N4)nc2c1` [compound 90], the values for the IC50 at mALDH1a2 and at hALDH1a2 were 6.38 µM and 10 µM, respectively.

Regarding `Cc1ccc(C(=O)Nc2ccc3c(c2)CCC(=O)N3)cc1C` [compound 11], the IC50 at mALDH1a2 and at hALDH1a2 was over 10 µM each time.

Regarding `COc1cnccc1C(=O)Nc1cc2c(cc1F)NC(=O)C(C)(C)C2` [compound 41], the IC50 at mALDH1a2 amounted to 11.1 µM; at hALDH1a2, 9 µM.

For the compound `CC1(C)Cc2cc(Nc3c[nH]c4c(c3=O)CCCC4)ccc2NC1=O` [compound 135], the IC50 on mALDH1a2 and at hALDH1a2 was over 10 µM throughout.

As to `O=C1CCc2cc(NC(=O)c3ccncc3CC3CC3)c(F)cc2N1` [compound 81], the 50% inhibitory concentration (IC50) at mALDH1a2 came out at 0.522 µM; on hALDH1a2, 0.376 µM.

`CCc1cnccc1C(=O)Nc1ccc2c(c1)CC(C)C(=O)N2` (stereo not shown) [compound 63]: the IC50 on mALDH1a2 worked out at 0.297 µM; on hALDH1a2, 0.538 µM.

For `CCc1cnccc1C(=O)Nc1ccc2c(c1)CC1(CC1)C(=O)N2` [compound 61], the 50% inhibitory concentration (IC50) is 1.81 µM at mALDH1a2 and 2.04 µM at hALDH1a2.

With `CC1(C)Cc2cc(Nc3cnc4ccccc4n3)c(F)cc2NC1=O` [compound 109], the concentration for half-maximal inhibition (IC50) on mALDH1a2 stood at 0.045 µM; on hALDH1a2 it was 0.042 µM.

As for `CCc1cnccc1/C=C/c1ccc2c(c1)CCC(=O)N2` [compound 33], the values for the half-inhibitory concentration (IC50) on mALDH1a2 and at hALDH1a2 were 0.143 µM and 0.258 µM, respectively.

`O=C1CCc2cc(Nc3ccc4ccccc4n3)ccc2N1` [compound 35]: the figures for the 50% inhibitory concentration (IC50) at mALDH1a2 and on hALDH1a2 were 0.1 µM and 0.148 µM, respectively.

In the case of `CN(C)Cc1cnccc1C(=O)Nc1ccc2c(c1)CCC(=O)N2` [compound 58], the IC50 on mALDH1a2 and on hALDH1a2 was over 10 µM in each case.

As to `O=C1CCc2cc(NC(=O)c3ccncc3)c(F)cc2N1` [compound 2], the IC50 at mALDH1a2 is 10 µM; on hALDH1a2, over 10 µM.

Take `Cc1cccc2ccc(Nc3ccc4c(c3)CC(C)(C)C(=O)N4)nc12` [compound 111]: the IC50 amounted to 0.145 µM on mALDH1a2 and 0.196 µM at hALDH1a2.

With `CCc1cnccc1C(=O)Nc1cc2c(cc1C#N)NC(=O)CC2` [compound 84], the IC50 at mALDH1a2 and at hALDH1a2 was over 10 µM each time.

`O=S1(=O)CCc2cc(Nc3ccc4ccccc4n3)ccc2N1` [compound 102]: the concentration for half-maximal inhibition (IC50) at mALDH1a2 and on hALDH1a2 was over 10 µM in each case.

As for `N#Cc1cccc2ncc(Nc3ccc4c(c3)CCC(=O)N4)cc12` [compound 100], the 50% inhibitory concentration (IC50) at mALDH1a2 and at hALDH1a2 was over 10 µM each time.

On to `Cc1ccc2ccc(Nc3ccc4c(c3)CCC(=O)N4)nc2c1` [compound 91], for which the concentration for half-maximal inhibition (IC50) was 0.594 µM on mALDH1a2 and 0.998 µM at hALDH1a2.

For the compound `CC1(C)Cc2cc(Nc3nc4ccccc4o3)ccc2NC1=O` [compound 99], the concentration for half-maximal inhibition (IC50) on mALDH1a2 was 0.184 µM; at hALDH1a2, 0.316 µM.

Take `CC1(C)Cc2cc(Nc3ccc4cnccc4n3)ccc2NC1=O` [compound 95]: the values for the 50% inhibitory concentration (IC50) on mALDH1a2 and at hALDH1a2 were 1.77 µM and 10 µM, respectively.

`CCc1cnc(C)cc1C(=O)Nc1cc2c(cc1F)NC(=O)CC2` [compound 8]: the 50% inhibitory concentration (IC50) on mALDH1a2 was 5 µM; on hALDH1a2, 9 µM.

Regarding `CCc1cnccc1CNc1cc2c(cc1F)NC(=O)CC2` [compound 3], the IC50 on mALDH1a2 is 3.33 µM; on hALDH1a2 it was 4 µM.

For the compound `CCc1cnccc1C(=O)Nc1cc2c(cc1F)NC(=O)C(C)(C)C2` [compound 38], the 50% inhibitory concentration (IC50) on mALDH1a2 and at hALDH1a2 was over 10 µM in each case.

Turning to `O=C1CCc2cc(NC(=O)c3ccnc4ccccc34)ccc2N1` [compound 52], the IC50 was determined as 0.117 µM on mALDH1a2 and 0.32 µM at hALDH1a2.

For `CCc1cnc(C)cc1C(=O)Nc1ccc2c(c1)CCC(=O)N2` [compound 56], the figures for the half-inhibitory concentration (IC50) at mALDH1a2 and on hALDH1a2 were 1.26 µM and 10 µM, respectively.

With `CC1(C)Cc2cc(Nc3ccc4ccccc4n3)c(F)cc2NC1=O` [compound 48], the IC50 on mALDH1a2 was found to be 0.097 µM; at hALDH1a2, 0.099 µM.

For `CC1(C)Cc2cc(Nc3ccc4ccncc4n3)ccc2NC1=O` [compound 94], the figures for the concentration for half-maximal inhibition (IC50) on mALDH1a2 and on hALDH1a2 were 0.921 µM and 0.809 µM, respectively.

For `CC1(C)Cc2cc(NN3CCC(c4ccccc4)C3=O)ccc2NC1=O` (stereo not shown) [compound 106], the IC50 at mALDH1a2 and at hALDH1a2 was over 10 µM in each case.

As for `O=C1CCc2cc(NCc3cc[nH]c3)c(F)cc2N1` [compound 17], the concentration for half-maximal inhibition (IC50) on mALDH1a2 and on hALDH1a2 was 10 µM each time.

With `Cc1cnccc1C(=O)Nc1cc2c(cc1F)NC(=O)CC2` [compound 15], the 50% inhibitory concentration (IC50) on mALDH1a2 and on hALDH1a2 was 10 µM in each case.

For `COC(=O)c1ccc2ncc(Nc3ccc4c(c3)CC(C)(C)C(=O)N4)nc2c1` [compound 120], the 50% inhibitory concentration (IC50) at mALDH1a2 is over 10 µM; at hALDH1a2 it was 10 µM.

Consider `CC1(C)Cc2cc(Nc3nc(=O)c4ccccc4[nH]3)ccc2NC1=O` [compound 116], for which the IC50 on mALDH1a2 stood at 0.337 µM; on hALDH1a2, 0.305 µM.

With `Cc1cc(C(=O)Nc2ccc3c(c2)CC2(CC2)C(=O)N3)c(Cl)cn1` [compound 68], the IC50 on mALDH1a2 is 3.44 µM; on hALDH1a2, over 10 µM.

`O=C1CCc2cc(Nc3ccc4ccccc4n3)c(F)cc2N1` [compound 47]: the results for the IC50 on mALDH1a2 and on hALDH1a2 were 0.072 µM and 0.099 µM, respectively.

For the compound `CCc1cnc(Cl)cc1C(=O)Nc1cc2c(cc1F)NC(=O)CC2` [compound 80], the results for the half-inhibitory concentration (IC50) on mALDH1a2 and at hALDH1a2 were 0.324 µM and 0.384 µM, respectively.

In the case of `O=C1CCc2cc(Nc3nccc4ccccc34)ccc2N1` [compound 22], the 50% inhibitory concentration (IC50) on mALDH1a2 was determined as 25 µM; on hALDH1a2 it was 20 µM.

`Cc1cnccc1C(=O)Nc1ccc2c(c1)CCC(=O)N2` [compound 21]: the IC50 on mALDH1a2 was 32 µM; on hALDH1a2 it was 30 µM.
